Assay results as given in patent publication US5304125A, “Apparatus for administering solid particulate aerosols to the lungs” (priority 1993, dated 1994).
Structures can show the parent of a compound that is named as a salt.

Columns and labels:
[1] = test system: Na^+ transport rates by cystic fibrosis airway epithelia; test: Ussing chamber bioassay of Na+ transport (short circuit current) in freshly excised human cystic fibrosis airway epithelia; format: cell-based
Source text: Freshly excised human cystic fibrosis airway […] used to assay bioactive amiloride in solution. Freshly excised tissues is obtained from the Operating Room at The University of North Carolina Hospitals as previously described. R. Boucher, M. Stutts, M. Knowles, L. Cantley, and J. Gatzy, Na+ transport in cystic fibrosis respiratory epithelia. Abnormal basal rate and response to adenylate cyclase activation. J. Clin. Invest. 78, 1245-1252 (1986). The tissue preparation is mounted in a minature Ussing chamber that has 6 ml of solution bathing each (mucosal; basolateral) surface of the preparation. The solution is a Krebs-Ringer bicarbonate solution which approximates the ionic composition of plasma. This solution is warmed (37°) and circulated with a gas lift (95% oxygen, 5% CO2) system. Mixing time in this chamber has been previously measured by calibration with dyes (blue dextran) and is five seconds or less. The measurement of sodium transport rates is performed using a voltage clamp that is interfaced to the tissue preparation by pairs of potential sensing electrodes and current passing electrodes. The current required to null the transepithelial potential difference to zero is the short circuit current, which in human airway tissue is an accurate index of sodium transport rates. See R. Boucher et al., supra. […] This experiment was conducted as described above. […]

[2] = in vivo
[3] = test system: luminal membrane of airway epithelia; conditions: applied to the luminal membrane of airway epithelia; cited from earlier work
[4] = Fate/dose of aerosolized amiloride (respirable, oropharyngeal, systemic) from Spinhaler or MDI in throat/Andersen impactor apparatus
Experimental: The present invention was tested using two devices that generate dry particle aerosols, the Spinhaler™ from Fisons, Inc., See Bell, J. Pharm. Sci. 60, 1559 (1971); Cox, Brit. Med. J. 2, 634 (1969), and the metered-dose inhaler (MDI). The Spinhaler™ consists of a rotor that holds a gelatin capsule containing the dry amiloride powder. After the capsule is pierced, the patient inhales through the mouthpiece causing the rotor to spin and vibrate at a high speed, dispensing and dispersing the drug. The MDI consists of a pressurized canister containing the drug, the propellant, and a surfactant. When activated, the MDI spray disperses the drug within large droplets of propellant into a spacer. Evaporation of the propellant and sedimentation of the larger particles yield dry drug that is inhaled by the patient.
(§1) FIG. 6 is a drawing of the experimental apparatus used in these studies. For the Spinhaler™ tests, lactose was used as a flow aid to dispense amiloride from the capsules. Before use, the lactose was not micronized, but was shaken through a 400 mesh sieve so that all lactose particles used were smaller than 37 μm. Amiloride was then mixed with the lactose in a 1:1 ratio and the material was reshaken through the 400 mesh sieve to break apart any agglomerates. Then 58 mg of the resieved mixture of amiloride and lactose was placed in capsule with pre-drilled holes and loaded into the Spinhaler™. Air at 60 liters per minute (Lpm) flowed in succession through the aerosol generator 60 (a Spinhaler™), an impactor 10 as described in connection with FIGS. 1-4 above, a glass "throat" 61, and a plastic "distal pharynx" 62. Within the distal pharynx an isokinetic sample at 28.3 Lpm flowed through a nozzle 63 and into an Andersen impactor 64. The remaining 31.7 Lpm of the original 60 Lpm was drawn off through a bypass line 65 that led to a filter 66, a rotameter 67, and to a vacuum (not illustrated). Gas that left the Andersen impactor flowed through a filter 68 to a second rotameter 69 to vacuum. To conduct a test, vacuum was applied simultaneously to both the Andersen impactor and the bypass lines. Air flow at 60 Lpm was maintained for four seconds to simulate an inspiration; six inspirations were used for each capsule of drug tested.
Amiloride used with the MDI was first milled until essentially all particles were smaller than 2.6 μm in diameter as determined using an optical microscope. This amiloride was then packaged in an MDI with Freon propellants (trichlorofluoromethane and dichlorodifluoromethane) and a surfactant (sorbitan trioleate), added to break up droplets or aggregates of solid particles. A Nebuhaler™ spacer 27 cm long, (see Newman, 39 Thorax 935 (1984)), was attached to the MDI to allow evaporation of the propellant and to remove larger particles by sedimentation. Prior to each release of drug from the MDI, the canister was shaken vigorously to achieve homogeneity. In each test, the MDI aerosol was dispersed into the spacer via a 50 μl metering valve designed to deliver 1 mg amiloride per puff; however, the actual delivery was closer to 3 mg/puff as determined by spectrophotometric analysis of all amiloride collected as discussed below. Leakage of some liquid from the MDI canisters between the filling time and the actual usage would have increased the concentration of amiloride without affecting internal canister pressure. Following the dispersion and a one second delay, vacuum was applied to both the Andersen impactor and bypass lines and maintained for four seconds. This procedure was repeated for a total of six aerosol puffs from the MDI for each test The MDI tests, like the Spinhaler™ tests, used a total flow of 60 Lpm; 28.3 to the Andersen impactor and […] through the bypass line.
Tests were conducted with the MDI and spacer both with and without the impactor. […]

[5] = Aerosol size distribution (Andersen impactor); format: physicochemical; conditions: 60 Lpm
Experimental: as §1, with “SpinhalerTM” for “Spinhaler™”, “reshaken” left out, “resieved” left out, “SpinhalerTM.” for “Spinhaler™.”, “SpinhalerTM),” for “Spinhaler™),”, “tested. […] This amiloride was then packaged in an MDI with Freon propellants (trichlorofluoromethane and dichlorodifluoromethane) and a surfactant (sorbitan trioleate), added to break up droplets or aggregates of solid particles. A NebuhalerTM spacer 27 cm long, (see Newman, 39 Thorax 935 (1984)), was attached to the MDI to allow evaporation of the propellant and to remove larger particles by sedimentation. Prior to each release of drug from the MDI, the canister was shaken vigorously to achieve homogeneity. […] Leakage of some liquid from the MDI canisters between the filling time and the actual usage would have increased the concentration of amiloride without affecting internal canister pressure. […] The fractional efficiency of the impactor was determined by comparing the mass of amiloride collected on each stage of the Andersen impactor with and without the impactor in place. […] The components analyzed for amiloride included the SpinhalerTM and its used capsule, the NebuhalerTM spacer when used, the impactor when used, the glass throat, the distal pharynx, and the sidearm filter, plus the entry nozzle, six individual plates, and final filter of the Andersen impactor. Washes from each of these components were then analyzed for amiloride. […]” for “tested.”

cystic fibrosis = conditions: liquid aerosol; Knowles, N. Engl. J. Med. (1990); cited from earlier work

SMILES | time to complete inhibition of ISC (Na^+ transport) ([1]; Krebs-Ringer bicarbonate, 37°, human CF airway epithelia, dry powder particle size about 1 μm) | timed release effect (dissolution of solid particles) ([1]; respirable particles ~1 μm, aqueous solution approximating the ionic strength of plasma) | maximum systemic dose [2] [mg daily] | optimal respirable dose [2] [mg daily] | inhibition of Na^+ and water absorption [3] | oropharyngeal deposition, fraction of generated amiloride [4] [%] | systemic dose relative to maximum [4] [mg/day] | total systemic daily dose [4] [mg] | oropharyngeal deposition (in words) ([4]; MDI or Spinhaler without spacer or impactor) | systemic dose relative to maximum (in words) ([4]; MDI with spacer alone, 12 mg/day respirable) | oropharyngeal dose (in words) ([4]; Spinhaler alone) | systemic dose (in words) ([4]; Spinhaler alone) | oropharyngeal deposition (in words) ([4]; with spacer or impactor, most particles larger than about 5 μm removed) | mass median diameter (mmd) ([5]; MDI with spacer and impactor) | mass median diameter (mmd) ([5]; MDI with spacer, no impactor) | mass median diameter (mmd) ([5]; Spinhaler alone) [um] | mass median diameter (mmd) ([5]; Spinhaler with impactor) | clinical benefit (cystic fibrosis)
N=C(N)NC(=O)c1nc(Cl)c(N)nc1N [amiloride hydrochloride] | about sixty | dissolved slowly over time | – | – | – | – | – | – | – | – | – | – | – | – | – | – | – | –
N=C(N)NC(=O)c1nc(Cl)c(N)nc1N [amiloride] | – | – | 20 | 8 to 12 | inhibit Na^+ and water absorption | 1.6 | ≤ 20 | 16.7 | high | somewhat higher than the maximum | far too high | excessive | decreases substantially | about 3 um | about 6 um | > 10 | about 4 um | confirmed clinical benefit
